Data on 1 molecule can be found in ChEMBL document CHEMBL1136629, “Amphipathic 3-phenyl-7-propylbenzisoxazoles; human pPaR gamma, delta and alpha agonists” (Bioorg Med Chem Lett, 2003).

For data set [1], the target named is T1, Peroxisome proliferator-activated receptor delta (Homo sapiens, UniProt Q03181).
T1 sequence (Q03181 whole entry): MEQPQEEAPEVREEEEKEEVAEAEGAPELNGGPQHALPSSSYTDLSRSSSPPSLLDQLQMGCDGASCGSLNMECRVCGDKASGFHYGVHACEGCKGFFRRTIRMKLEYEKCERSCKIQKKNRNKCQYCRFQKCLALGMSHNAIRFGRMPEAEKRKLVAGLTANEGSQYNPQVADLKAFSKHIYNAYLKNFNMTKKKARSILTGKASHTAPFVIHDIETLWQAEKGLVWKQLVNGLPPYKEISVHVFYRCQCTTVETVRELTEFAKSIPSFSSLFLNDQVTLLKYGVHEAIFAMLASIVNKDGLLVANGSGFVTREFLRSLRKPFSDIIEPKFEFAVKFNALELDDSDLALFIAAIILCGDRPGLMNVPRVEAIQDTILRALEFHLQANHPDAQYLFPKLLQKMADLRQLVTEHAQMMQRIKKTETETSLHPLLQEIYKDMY
Description: In vitro binding affinity towards human peroxisome proliferator activated receptor delta (PPAR delta)

Data set [2] in a line: AUC of compound for a 2 mpk po dose of the sodium salt in rats. The data set is classed as ADME, organism-based. The conditions noted are these: rat, plasma, 2 mg/kg.
The nature of data set [3]: Bioavailability of compound was determined. The data set is classed as ADME, organism-based. The conditions noted are these: eutheria, in vivo.
The target in data set [4] is T1, Peroxisome proliferator-activated receptor delta. Nature of the data set: Agonistic activity was determined in COS1 cells transfected with GAL 4-PPAR delta receptor. The data set is classed as functional, cell-based, COS-1.
Data set [5] addresses T2, Peroxisome proliferator-activated receptor alpha (Homo sapiens, UniProt Q07869).
T2 sequence (Q07869 whole entry): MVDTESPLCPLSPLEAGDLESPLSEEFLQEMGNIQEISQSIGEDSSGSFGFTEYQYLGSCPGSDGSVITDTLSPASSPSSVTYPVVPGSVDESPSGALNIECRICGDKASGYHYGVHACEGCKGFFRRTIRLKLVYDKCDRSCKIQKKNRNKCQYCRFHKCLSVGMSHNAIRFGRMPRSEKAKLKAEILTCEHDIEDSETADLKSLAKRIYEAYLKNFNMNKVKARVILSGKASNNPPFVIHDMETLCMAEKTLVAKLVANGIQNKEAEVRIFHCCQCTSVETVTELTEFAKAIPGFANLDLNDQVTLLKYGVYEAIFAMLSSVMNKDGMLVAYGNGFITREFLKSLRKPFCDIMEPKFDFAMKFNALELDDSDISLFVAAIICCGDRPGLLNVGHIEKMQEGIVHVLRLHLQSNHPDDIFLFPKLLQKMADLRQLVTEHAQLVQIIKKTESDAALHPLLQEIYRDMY
Nature of the data set: Agonistic activity was determined in COS1 cells transfected with GAL 4-PPAR alpha receptor. Format: functional, cell-based, COS-1.

The target of data set [6] is T3, Peroxisome proliferator-activated receptor gamma (Homo sapiens, UniProt P37231).
T3 sequence (P37231 whole entry): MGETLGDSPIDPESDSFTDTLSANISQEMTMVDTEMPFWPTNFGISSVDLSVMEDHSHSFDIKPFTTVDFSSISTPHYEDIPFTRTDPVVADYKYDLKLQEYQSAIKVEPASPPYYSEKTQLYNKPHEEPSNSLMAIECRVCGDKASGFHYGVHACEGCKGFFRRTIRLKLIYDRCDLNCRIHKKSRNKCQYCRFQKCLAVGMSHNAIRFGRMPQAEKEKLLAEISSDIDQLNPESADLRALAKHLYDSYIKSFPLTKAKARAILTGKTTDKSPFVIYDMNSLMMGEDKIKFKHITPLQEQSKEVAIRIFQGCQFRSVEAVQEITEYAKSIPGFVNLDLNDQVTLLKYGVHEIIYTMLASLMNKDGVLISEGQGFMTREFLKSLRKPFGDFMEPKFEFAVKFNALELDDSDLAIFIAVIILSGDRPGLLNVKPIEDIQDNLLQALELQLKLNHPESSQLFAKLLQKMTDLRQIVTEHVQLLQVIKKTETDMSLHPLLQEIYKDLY
Nature of the data set: In vitro binding affinity towards human peroxisome proliferator activated receptor gamma (PPAR gamma).

In data set [7] the target is T3, Peroxisome proliferator-activated receptor gamma. Nature of the data set: Agonistic activity was determined in COS1 cells transfected with GAL 4-PPAR gamma receptor. The data set is classed as functional, cell-based, COS-1.
The target of data set [8] is T2, Peroxisome proliferator-activated receptor alpha. The data set is described as follows: In vitro binding affinity towards human peroxisome proliferator activated receptor alpha (PPAR alpha).

pEC50, pKi: −log10 of the molar value.

What is called pKi is −log10 of the Ki, conventionally taken in molar units. One may read the AUC as concentration integrated over time. For orientation: bioavailability means dose-corrected exposure relative to a reference, in per cent. The term pEC50 denotes the negative decadic logarithm of the EC50, by convention in mol/L. The low end stands for a large EC50, the high end for a small EC50. For the molecule `CCCc1c(OCCCCOc2cccc(CC(=O)O)c2)ccc2c(-c3ccccc3)noc12`, the pKi in data set [1] was 9.52; in data set [6], 8.51; in data set [8], 8.14. The AUC in data set [2] amounted to 4.2 µM·h. In data set [3], this molecule came in with a bioavailability of 76%. The pEC50 in data set [4] was 7.70; in data set [5], 8.30; in data set [7], 8.22.
